Test results from patent US6495587B1, “Tricyclic indole-2-carboxylic acid compound used as NMDA receptor antagonist” (Sumitomo Pharmaceuticals Company, Limited, priority 1999, dated 2002).
Counter-ions that a name gives are not always drawn. Like-named read-outs stand apart in the source and are kept apart here.

What was measured:
[1] = Characteristic moisture absorption (Vapor Sorption Analyzer); type: physicochemical; settings: 25° C.; for Water taken up by the dehydrated sample: 0% R.H. to 95% R.H. and back to 10% R.H.
Method: Characteristic moisture absorption of the crystalline hydrochloride monohydrate [C-5] and the hydrochloride [C-4] which is in the form of an amorphous powder were measured with a Vapor Sorption Analyzer MB300G-3 (VTI Corporation).
In advance of measurement, the weighed samples put in the Analyzer were dehydrated at 60° C. under reduced pressure.

[2] = test system: tonic convulsions after i.c.v. administration of NMDA; test: Anti-convulsion test (NMDA i.c.v.); type: in vivo, mice; settings: 20 min before NMDA 5 nmol i.c.v.
Method: Twenty minutes after intravenous administration of the test compound (1 to 10 mg/kg) into each of ten mice tested, NMDA (5 nmol) was administered intracerebroventricularly (i.c.v.). […] The hydrochloride [C-4] at 10 mg/kg i.v. protected 90% of mice from tonic convulsions.

[3] = biological target: T1, glycine binding site of the NMDA receptor (rat brain synaptic membrane) (Rattus norvegicus, UniProt P35439); test: [3H]-DCKA binding test; settings: 10 nM [3H]-DCKA, 2° C., 10 min, pH 7.4; read-out: IC50, inhibition of [3H]-DCKA binding
T1 construct: A crude rat brain synaptic membrane preparation; from tissue; host or cells: rat brain synaptic membranes (Triton X-100 treated)
Method: A crude rat brain synaptic membrane preparation was washed three time with 50 mM Tris acetate buffer (pH 7.4) and centrifuged at 50,000×g for 30 min. The pellets obtained were suspended in 0.32M sucrose solution and stored at −80° C. For binding studies, the frozen suspension was thawed, treated with 0.08-0.10% triton X-100 at 2° C. for 10 min. The membrane suspension was washed twice and centrifuged at 50,000×g for 30 min. The synaptic membrane thus prepared (ca. 100 μg of protein) was incubated with 10 nM [^3H]-5,7-dichlorokynurenic acid (DCKA) and the test compound (10 to 0.1 ng/mL) at 2° C. for 10 min in 50 mM Tris acetate buffer (pH 7.4). The incubation was terminated by suction filtration using Whatman GF/B glass filter. The radioactivity bound to the membrane on the filter was measured by scintillation counting. Non-specific binding was calculated by the radioactivity measured under the incubations in the presence cf 0.1 mM glycine.

[4] = type: physicochemical; settings: for HPLC integrated intensity (%) under 75% R.H. / HPLC integrated intensity (%) in a sealed tube: 60° C.
Method: The hydrochloride monohydrate [C-5] was kept at a temperature of 60° C., in a sealed tube or under 75% R.H.(relative humidity) for 4 weeks. Thereafter, the remaining amount of the compound was assayed with high performance liquid chromatography (HPLC).

Structure (SMILES)	Water taken up by the dehydrated sample [1]	Mice protected from tonic convulsions ([2]; 10 mg/kg i.v., ten mice) [%]	ED50 ([2]; Mus musculus, iv, mice, read-out: ED50, protection from tonic convulsions) [mg/kg]	IC50 [3] [nM]	Increase of impurities or degradation products in HPLC charts [4]	HPLC integrated intensity (%) under 75% R.H. ([4]; 2 weeks) [%]	HPLC integrated intensity (%) under 75% R.H. ([4]; 4 weeks) [%]	HPLC integrated intensity (%) under 75% R.H. ([4]; Initial) [%]	HPLC integrated intensity (%) in a sealed tube ([4]; 2 weeks) [%]	HPLC integrated intensity (%) in a sealed tube ([4]; 4 weeks) [%]	HPLC integrated intensity (%) in a sealed tube ([4]; Initial) [%]	Water taken up, theoretical weight change for one molecular equivalent ([1]; moist atmosphere) [wt %]
C[C@@H](Oc1cc(CN)ccc1NC(=O)C[C@@H]1CCc2cc(Cl)cc3[nH]c(C(=O)O)c1c23)C(=O)O [C-4, (3S)-7-Chloro-3-(2-((1R)-1-carboxyethoxy)-4-aminomethylphenyl)aminocarbonylmethyl-1,3,4,5-tetrahydrobenz[c.d]indole-2-carboxylic Acid Hydrochloride]	more than 2.5 molecular equivalents of water	90	2.3	1.4	–	–	–	–	–	–	–	–
C[C@@H](Oc1cc(CN)ccc1NC(=O)C[C@@H]1CCc2cc(Cl)cc3[nH]c(C(=O)O)c1c23)C(=O)O.Cl.O [C-5]	one	–	–	–	did not show any increase of impurities or degradation products	99.2	99.5	99.3	99.3	99.6	99.3	3.45
C[C@H](Oc1cc(CN)ccc1NC(=O)C[C@@H]1CCc2cc(Cl)cc3[nH]c(C(=O)O)c1c23)C(=O)O [D-2, (3S)-7-Chloro-3-(2-((1S)-1-carboxyethoxy)-4-aminomethylphenyl)aminocarbonylmethyl-1,3,4,5-tetrahydrobenz[c.d]indole-2-carboxylic Acid Hydrochloride, reference compound]	–	–	–	16	–	–	–	–	–	–	–	–
